{"source": "patent US6576625B2", "about": "“Targeted vesicular constructs for cytoprotection and treatment of H. pylori infections” (Panacea Biotic Limited, priority 2001, dated 2003)", "tested_on": "NSAID induced, gastric lesions followed by colonization of gastric mucosa by orally delivered H. felis", "assay": "Ulcer healing (cytorepairing and cytoprotective performance) in rats, Sakita's classification", "assay_type": "in vivo, albino male rats of Wistar origin", "conditions": "at the same MIC90 level", "procedure": "The cytorepairing and cytoprotective performance of the prepared liposomes was assessed in albino male rats of Wistar origin. The level of ulcer healing (%RUh) following the administration of liposomes against the NSAID induced, gastric lesions followed by colonization of gastric mucosa by orally delivered H. felis suspension culture was studied. The degree of ulceration and rate of ulcer healing was determined following the classification of Sakita (Sakita, T., Oguro, Y., Miwa, T., 1981, In: Handbook of Intestinal Endoscopy 1 ed., Tokyo: Chugi-Igakusha, 375-396) and Tamada (Tamada, F., 1992, In: Diagnostic and Therapeutic Gastrointestinal Endoscopy, KSH Hospital, 23-25), both incorporated herein by reference. Histopathological examination of the gastric mucosa was done using phase contrast research microscope (Leitz-Biomed, Germany).", "data": [{"smiles": "CC1(C)S[C@@H]2[C@H](NC(=O)[C@H](N)c3ccc(O)cc3)C(=O)N2[C@H]1C(=O)O", "note": "[amoxycillin, Amoxycillin]", "values": [{"measurement": "recovery (ulcer healing)", "value": 33.3, "unit": "%"}]}]}
